The text below walks through data of PubChem BioAssay (NCI).

Holding throughout (test): NCI tumour cell line growth inhibition, 48 h
Test [1] concerns COLO 205 colon.
For test [2], the system named is SK-OV-3 ovarian.
For test [3], the system named is SNB-19 CNS.
Test [4] has as its system LXFL 529 NSCLC.
Test [5] relates to DMS 273 small cell lung.
Test [6] deals with TK-10 renal.
Test [7] relates to OVCAR-4 ovarian.
The test system of test [8] is UACC-257 melanoma.
Test [9] relates to K-562 leukemia.
Test [10] deals with PC-3 prostate.

Structures are written as SMILES. Values joined by “and” are separate entries in the source; they are usually repeats but may differ in a detail not shown here. Identical values can stand only once.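 Cells were grown in 96-well plates and exposed to each compound for 48 hours at five concentrations; endpoints were interpolated linearly between bracketing concentrations, or set to the highest concentration if not reached. GI50: concentration for 50% inhibition of growth. TGI denotes the concentration required for complete inhibition of growth.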

Turning to `O=C(CC1(O)C(=O)Nc2c(Cl)ccc(Cl)c21)c1ccc(Cl)cc1` (stereo not given), the TGI is 32.8 µM in [1]; 90.9 µM in [2]; > 100 µM in test [3]; 88.9 µM in test [4]; 73.5 µM in test [5]; > 100 µM in test [6]. The TGI in test [7] came to 41.4 µM; in test [8], 94.7 µM.
On to `CN(C)c1ccc(/C=c2/sc3nc(=O)c(-c4ccccc4NC(=O)C(F)(F)F)nn3c2=O)cc1`, for which the TGI in [1], in test [2], in test [3], in [9], in test [4] and in test [5] was > 100 µM each time. Besides, the TGI in test [6] and in test [7] was > 100 µM in each case.
As to `O=[N+]([O-])c1ccc(/C=C/c2ccc(/C=C/c3ccc([N+](=O)[O-])cc3[N+](=O)[O-])cc2)c([N+](=O)[O-])c1`, the TGI in [2], in test [9], in [4], in [5], in test [6] and in [7] was > 100 µM each time. Further, the TGI in [8] is > 100 µM.
On to `N#CC1(CCCCl)CCCCC1`, for which the TGI in [1], in test [2], in [3], in [4], in test [5] and in [6] was > 100 µM in each case. Besides, in test [8], the TGI is > 100 µM.
For `N#Cc1c(CC(=O)O)cc(=O)n2c1[nH]c1ccccc12`, the TGI in test [1], in test [2], in test [3], in test [9], in test [5] and in [6] was > 100 µM each time. Besides, the TGI in [7] and in test [8] was > 100 µM each time.
`O=C1NC(=O)C2C3C=CC(C12)C1C2C(=O)NC(=O)C2C31` (stereo not given): the GI50 in [1] was > 62.6 µM and 108 µM; in test [2], > 767 µM; in [10] it was 525 µM; in [3], 327 µM; in test [9], 137 µM; in test [6] it was 695 µM. Moreover, the GI50 in test [7] and in [8] was > 1000 µM throughout. Moreover, the TGI in test [1] is 198 µM and > 892 µM; in test [2], 108 µM and > 1000 µM; in test [10] it was 250 µM and > 1000 µM; in [3], 238 µM and > 904 µM; in test [9] it was 250 µM and > 1000 µM; in test [5], 250 µM. Moreover, the TGI in test [6] was > 1000 µM; in test [7] it was 250 µM and > 1000 µM; in [8], 250 µM and > 1000 µM.
For `O=c1c(Oc2ccc(F)cc2F)cc2cnc(NC3CCOCC3)nc2n1C1CC1`, the GI50 was > 25 µM in [1]; > 25 µM in test [2]; > 25 µM in test [10]; > 25 µM in test [3]; > 25 µM in test [9]; 19.8 µM in test [6]. For the same molecule, the GI50 in test [7] and in [8] was > 25 µM in each case. Further, the TGI in [1], in [2], in [10], in test [3], in test [9] and in [6] was > 25 µM each time. In addition, the TGI in test [7] and in test [8] was > 25 µM each time.
`Cc1ccccc1NC(=O)CC(=O)NNCC(=O)Nc1nnc(-c2ccccc2)s1`: the TGI in [1], in test [3], in [9], in test [4], in [5] and in [6] was > 100 µM in each case. Moreover, the TGI was 33.5 µM in test [7] and > 100 µM in test [8].
Consider `Nc1ccccc1C(=O)/C=C/c1ccccc1O`, for which the TGI in test [1] is > 100 µM; in [2], > 100 µM; in test [3], > 100 µM; in [9] it was 93.4 µM; in test [4] it was > 100 µM; in test [6], > 100 µM. For the same molecule, the TGI in [7] was > 100 µM; in test [8], 53 µM.
`O=C1c2ccccc2-c2c1c1c(O)cccc1n2Cc1ccccc1`: the GI50 in test [1] is 47.4 µM; in test [2], 14.5 µM; in test [10], 12.3 µM; in [3], 14.4 µM; in test [9], 22.8 µM; in test [6], 8.74 µM. Besides, the results for the GI50 in test [7] and in [8] were 7.14 µM and 17.7 µM, respectively. Besides, the TGI is > 100 µM in test [1]; 41.7 µM in test [2]; 32.6 µM in [10]; 82.5 µM in test [3]; > 100 µM in [9]; 22.5 µM in [6]. The TGI turned out to be 43.9 µM in test [7] and 68.5 µM in [8].
Take `COc1ccc(-n2c(=O)c3ccccc3n(Cc3ccc(C(=O)NO)cc3)c2=O)cc1`: the GI50 is 1.75 µM in test [1]; 2.45 µM in test [2]; 2.08 µM in test [10]; 2.96 µM in test [3]; 3.11 µM in test [9]; 2.33 µM in [6]. The GI50 in [7] is 2.86 µM; in test [8] it was 1.65 µM. Further, the TGI in test [1] was 4.22 µM; in test [2] it was 6.69 µM; in test [10], 5.06 µM; in test [3], 18.5 µM; in [9] it was > 100 µM; in test [6], 12.9 µM. Further, the TGI was determined as 20 µM in test [7] and 4.3 µM in [8].
For the molecule `COc1ccc(Cn2c(Br)c3c(c2-c2cc(OC)c(OC)c(OC)c2)CCc2sc(N)nc2-3)cc1`, the GI50 is 1.07 µM in test [1]; 1.2 µM in [2]; 1.57 µM in test [10]; 3.97 µM in [3]; 0.436 µM in [9]; 1.1 µM in test [6]. Further, the GI50 was 2.5 µM in test [7] and 11.8 µM in test [8]. The TGI in test [1] was 3.7 µM; in test [2], 8.04 µM; in test [10] it was > 100 µM; in [3], > 100 µM; in test [9] it was > 32.9 µM; in test [6] it was 6.96 µM. Further, the figures for the TGI in test [7] and in test [8] were > 57.3 µM and 51.3 µM, respectively.
